Experimental data from ChEMBL document CHEMBL1201862, “PubChem BioAssay data set” (2004).
Activity calls are given as the source filed them.

Experiments:
[1] = test system: INS1; experiment: beta cell apoptosis inhibitors, cytokine rescue, dose response, luminescence, retest (AID 449756); type: functional, cell-based; conditions: Rattus norvegicus;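 note: cell death triggered by IL-1 beta plus TNF-alpha plus IFN-gamma mixture; protective hits raise ATP signal compared with cytokine alone wells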
[2] = cytotoxicity in MIN6 insulinoma cells, dose response, cytotoxicity control, cell-based, mouse insulinoma (AID 2122); type: functional;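 note: confirmatory high-throughput counterscreen run to flag cytotoxic compounds; mouse MIN-6 beta cells carrying an insulin promoter eGFP reporter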
[3] = insulin promoter down-regulators in MIN6 cells, imaging, high-content screening, mouse beta cells (AID 1628); type: functional
[4] = target: Cytochrome P450 3A4 (Homo sapiens, UniProt P08684);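 note: CYP3A4 tested as one member of a cytochrome P450 panel screen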
[5] = Luminescence Cell-Based Dose Retest to Confirm Inhibitors of Cancer Stem Cells. [Related pubchem assays (depositor defined):AID2717, AID2721]; type: functional; conditions: Homo sapiens
[6] = target: Cytochrome P450 2C9 (Homo sapiens, UniProt P11712)
[7] = target: T1, Polyadenylate-binding protein 1 (Homo sapiens, UniProt P11940); experiment: PABP1 MLLE–PAM2 binding inhibitor potency, dose response, biochemical, fluorescence polarization, FITC-PAM2 peptide (AID 602259); type: functional; conditions: read-out: IC50_Mean
[8] = test system: Vero; experiment: Vero cell cytotoxicity, cytotoxicity control for flavivirus capping enzyme inhibitors (AID 588742); type: functional; conditions: Chlorocebus sabaeus
[9] = target: Genome polyprotein (dengue virus type 2, UniProt P29990); experiment: Dengue-2 NS5 methyltransferase inhibitors, primary screen, biochemical, confirmation dose response (AID 588689); type: functional
[10] = target: T1, Polyadenylate-binding protein 1; experiment: PABP1 MLLE–PAM2 interaction inhibitors, dose response, miRNA deadenylation inhibitor project, biochemical, fluorescence polarization, Cy5-PAM2 peptide, secondary (AID 602260); type: functional; conditions: read-out: IC50_Mean
[11] = target: T2, Cytochrome P450 1A2 (Homo sapiens, UniProt P05177);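 note: PubChem cytochrome P450 panel assay, CYP1A2 panel member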
T2 sequence (P05177 whole entry): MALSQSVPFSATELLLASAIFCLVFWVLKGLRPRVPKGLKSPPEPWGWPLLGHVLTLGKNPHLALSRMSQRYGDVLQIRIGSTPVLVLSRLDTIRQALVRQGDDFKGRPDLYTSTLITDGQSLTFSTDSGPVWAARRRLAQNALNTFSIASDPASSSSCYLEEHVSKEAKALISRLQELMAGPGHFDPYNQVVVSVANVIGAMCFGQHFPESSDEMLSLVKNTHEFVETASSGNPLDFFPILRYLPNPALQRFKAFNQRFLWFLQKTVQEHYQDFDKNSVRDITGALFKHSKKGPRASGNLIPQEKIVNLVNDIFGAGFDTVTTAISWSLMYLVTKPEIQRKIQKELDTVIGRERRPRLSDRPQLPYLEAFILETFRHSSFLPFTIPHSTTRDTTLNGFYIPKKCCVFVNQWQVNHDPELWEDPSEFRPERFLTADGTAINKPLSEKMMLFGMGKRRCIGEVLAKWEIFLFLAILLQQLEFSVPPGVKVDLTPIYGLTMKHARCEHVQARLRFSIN

[12] = target: Cytochrome P450 2D6 (Homo sapiens, UniProt P10635);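 note: CYP2D6 member of a cytochrome P450 panel assay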
[13] = target: T3, Apoptotic protease-activating factor 1 (Homo sapiens, UniProt O14727); type: functional
T3 sequence (O14727 whole entry): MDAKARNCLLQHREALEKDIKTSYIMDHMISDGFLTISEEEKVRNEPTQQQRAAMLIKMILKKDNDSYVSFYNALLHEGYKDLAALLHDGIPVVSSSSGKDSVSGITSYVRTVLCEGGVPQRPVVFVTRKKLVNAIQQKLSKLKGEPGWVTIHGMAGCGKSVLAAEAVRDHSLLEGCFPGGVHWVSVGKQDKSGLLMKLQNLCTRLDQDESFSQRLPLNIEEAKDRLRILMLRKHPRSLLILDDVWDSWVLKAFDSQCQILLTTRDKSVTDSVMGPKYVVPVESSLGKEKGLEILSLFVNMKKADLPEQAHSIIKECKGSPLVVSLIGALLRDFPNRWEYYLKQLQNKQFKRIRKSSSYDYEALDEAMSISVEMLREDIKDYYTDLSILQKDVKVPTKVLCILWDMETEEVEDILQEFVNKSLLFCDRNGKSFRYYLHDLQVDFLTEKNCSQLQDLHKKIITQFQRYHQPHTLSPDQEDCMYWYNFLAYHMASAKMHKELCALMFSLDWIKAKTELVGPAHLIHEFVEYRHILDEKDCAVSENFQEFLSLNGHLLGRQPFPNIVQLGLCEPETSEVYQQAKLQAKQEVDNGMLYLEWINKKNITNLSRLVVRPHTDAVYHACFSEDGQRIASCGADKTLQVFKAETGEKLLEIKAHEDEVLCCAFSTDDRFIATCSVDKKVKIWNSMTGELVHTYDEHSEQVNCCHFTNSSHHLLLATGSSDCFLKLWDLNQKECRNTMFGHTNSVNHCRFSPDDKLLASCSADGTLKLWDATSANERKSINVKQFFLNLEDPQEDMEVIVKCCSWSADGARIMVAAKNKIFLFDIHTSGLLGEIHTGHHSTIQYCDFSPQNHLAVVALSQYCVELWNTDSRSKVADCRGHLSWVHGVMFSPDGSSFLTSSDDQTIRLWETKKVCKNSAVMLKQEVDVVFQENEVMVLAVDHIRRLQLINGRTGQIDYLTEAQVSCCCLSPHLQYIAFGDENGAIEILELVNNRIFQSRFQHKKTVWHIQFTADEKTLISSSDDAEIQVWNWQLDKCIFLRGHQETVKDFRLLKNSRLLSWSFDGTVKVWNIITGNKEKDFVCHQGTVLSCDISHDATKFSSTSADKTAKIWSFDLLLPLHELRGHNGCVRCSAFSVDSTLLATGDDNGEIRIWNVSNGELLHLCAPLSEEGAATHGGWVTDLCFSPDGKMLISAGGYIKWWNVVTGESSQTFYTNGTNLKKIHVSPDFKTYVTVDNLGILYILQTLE

[14] = THP-1 cell cytotoxicity, dose response, cytotoxicity control for Vif-APOBEC3G degradation inhibitor project, THP-1 cells (AID 1117359); type: functional; conditions: Human immunodeficiency virus 1, THP-1
[15] = target: T4, Replicative DNA helicase DnaB (Mycobacterium tuberculosis, UniProt P9WMR3); experiment: DnaB intein splicing inhibitors, dose response, biochemical, cell-free fluorescence (AID 449749); type: functional
T4 sequence (P9WMR3 whole entry): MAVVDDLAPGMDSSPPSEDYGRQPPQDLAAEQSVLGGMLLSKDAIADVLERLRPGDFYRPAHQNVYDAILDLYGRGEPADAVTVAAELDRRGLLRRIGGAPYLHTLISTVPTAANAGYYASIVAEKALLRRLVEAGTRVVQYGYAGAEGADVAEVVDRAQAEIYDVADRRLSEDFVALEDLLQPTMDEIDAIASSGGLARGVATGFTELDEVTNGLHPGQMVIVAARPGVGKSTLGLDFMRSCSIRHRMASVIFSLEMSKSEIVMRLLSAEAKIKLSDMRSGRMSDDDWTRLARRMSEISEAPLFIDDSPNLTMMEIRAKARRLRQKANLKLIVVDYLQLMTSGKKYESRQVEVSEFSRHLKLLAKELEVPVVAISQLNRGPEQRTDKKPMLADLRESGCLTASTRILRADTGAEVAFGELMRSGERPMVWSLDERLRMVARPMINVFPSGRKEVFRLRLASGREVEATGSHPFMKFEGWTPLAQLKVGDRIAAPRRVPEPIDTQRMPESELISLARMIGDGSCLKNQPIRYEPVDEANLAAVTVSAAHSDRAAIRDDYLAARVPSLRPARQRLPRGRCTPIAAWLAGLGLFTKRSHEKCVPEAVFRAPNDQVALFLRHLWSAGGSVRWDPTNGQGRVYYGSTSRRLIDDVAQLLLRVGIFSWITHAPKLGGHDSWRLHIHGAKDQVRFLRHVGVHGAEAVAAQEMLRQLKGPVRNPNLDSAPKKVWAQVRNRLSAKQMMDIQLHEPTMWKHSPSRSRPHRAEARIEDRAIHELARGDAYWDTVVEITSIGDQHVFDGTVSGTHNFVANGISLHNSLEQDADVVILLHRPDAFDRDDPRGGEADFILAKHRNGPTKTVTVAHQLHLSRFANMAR

[16] = target: T5, Coagulation factor XII (Homo sapiens, UniProt P00748); type: functional;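 note: activated factor XIIa alpha cleaving a fluorogenic AMC peptide substrate; inhibitor potency from loss of enzyme activity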
T5 sequence (P00748 whole entry): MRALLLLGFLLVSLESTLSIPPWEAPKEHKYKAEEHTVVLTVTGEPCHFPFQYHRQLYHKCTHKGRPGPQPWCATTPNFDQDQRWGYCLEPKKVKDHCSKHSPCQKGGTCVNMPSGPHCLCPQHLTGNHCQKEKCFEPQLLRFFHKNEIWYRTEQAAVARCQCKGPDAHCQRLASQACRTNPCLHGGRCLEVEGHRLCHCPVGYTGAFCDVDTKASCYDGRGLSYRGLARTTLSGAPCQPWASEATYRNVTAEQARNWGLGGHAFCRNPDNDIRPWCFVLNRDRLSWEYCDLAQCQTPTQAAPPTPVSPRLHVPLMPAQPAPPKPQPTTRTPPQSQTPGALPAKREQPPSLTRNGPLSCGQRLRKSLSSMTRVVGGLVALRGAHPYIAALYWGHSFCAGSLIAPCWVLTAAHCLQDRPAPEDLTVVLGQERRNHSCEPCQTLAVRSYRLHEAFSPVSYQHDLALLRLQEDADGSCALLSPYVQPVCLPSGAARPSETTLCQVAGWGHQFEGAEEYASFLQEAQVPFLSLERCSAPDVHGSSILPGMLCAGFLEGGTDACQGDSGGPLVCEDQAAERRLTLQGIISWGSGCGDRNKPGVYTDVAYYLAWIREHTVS

[17] = target: T6, Protein RecA (Mycobacterium tuberculosis, UniProt P9WHJ3); experiment: Fluorescence Cell-Free Homogeneous Dose Retest to Identify Inhibitors of RecA-Intein Splicing Activity. [Related pubchem assays (depositor defined):AID2097, AID2223, AID489010, AID492950]; type: functional
T6 sequence (P9WHJ3 whole entry): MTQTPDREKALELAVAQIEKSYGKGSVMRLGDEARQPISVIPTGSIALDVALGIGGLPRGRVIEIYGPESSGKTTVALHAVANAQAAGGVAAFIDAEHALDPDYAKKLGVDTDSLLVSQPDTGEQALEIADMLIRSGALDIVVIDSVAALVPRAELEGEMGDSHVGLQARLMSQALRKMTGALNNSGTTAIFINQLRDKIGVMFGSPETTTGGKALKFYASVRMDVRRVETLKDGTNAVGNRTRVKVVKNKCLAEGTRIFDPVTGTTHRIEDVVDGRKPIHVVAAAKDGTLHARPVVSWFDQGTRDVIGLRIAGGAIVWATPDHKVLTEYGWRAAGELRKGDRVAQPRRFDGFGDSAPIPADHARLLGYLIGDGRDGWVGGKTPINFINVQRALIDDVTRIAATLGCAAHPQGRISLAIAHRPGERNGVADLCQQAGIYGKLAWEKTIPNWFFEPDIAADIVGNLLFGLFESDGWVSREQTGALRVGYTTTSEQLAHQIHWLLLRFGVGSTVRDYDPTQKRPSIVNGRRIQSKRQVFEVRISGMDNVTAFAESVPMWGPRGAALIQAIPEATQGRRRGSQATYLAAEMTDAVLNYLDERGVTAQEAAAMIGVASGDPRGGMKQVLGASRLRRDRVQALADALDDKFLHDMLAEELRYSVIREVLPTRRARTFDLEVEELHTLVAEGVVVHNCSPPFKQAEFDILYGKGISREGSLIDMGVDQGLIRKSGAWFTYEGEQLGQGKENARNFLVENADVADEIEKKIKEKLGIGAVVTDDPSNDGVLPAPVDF

[18] = HEp-2 cell cytotoxicity, dose response, cytotoxicity control for RSV inhibitor project, HTS (AID 2410); type: functional; conditions: human respiratory syncytial virus

Chain of Cytochrome P450 3A4 (P08684 whole entry): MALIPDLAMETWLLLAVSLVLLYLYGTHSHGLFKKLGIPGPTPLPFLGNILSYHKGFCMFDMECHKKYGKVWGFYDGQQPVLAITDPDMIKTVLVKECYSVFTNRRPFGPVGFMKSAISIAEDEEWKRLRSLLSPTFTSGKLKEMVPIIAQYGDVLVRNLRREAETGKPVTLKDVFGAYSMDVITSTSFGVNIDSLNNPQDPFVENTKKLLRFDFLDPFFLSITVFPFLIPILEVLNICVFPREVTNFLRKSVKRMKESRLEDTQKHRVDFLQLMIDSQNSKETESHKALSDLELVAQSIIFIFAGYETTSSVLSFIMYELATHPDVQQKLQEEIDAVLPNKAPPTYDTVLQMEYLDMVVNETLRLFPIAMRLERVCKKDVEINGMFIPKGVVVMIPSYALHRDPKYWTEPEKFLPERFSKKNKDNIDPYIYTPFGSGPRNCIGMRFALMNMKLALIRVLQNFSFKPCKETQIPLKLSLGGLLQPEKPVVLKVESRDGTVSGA
Chain of Genome polyprotein (P29990 2492-3391 limits assumed): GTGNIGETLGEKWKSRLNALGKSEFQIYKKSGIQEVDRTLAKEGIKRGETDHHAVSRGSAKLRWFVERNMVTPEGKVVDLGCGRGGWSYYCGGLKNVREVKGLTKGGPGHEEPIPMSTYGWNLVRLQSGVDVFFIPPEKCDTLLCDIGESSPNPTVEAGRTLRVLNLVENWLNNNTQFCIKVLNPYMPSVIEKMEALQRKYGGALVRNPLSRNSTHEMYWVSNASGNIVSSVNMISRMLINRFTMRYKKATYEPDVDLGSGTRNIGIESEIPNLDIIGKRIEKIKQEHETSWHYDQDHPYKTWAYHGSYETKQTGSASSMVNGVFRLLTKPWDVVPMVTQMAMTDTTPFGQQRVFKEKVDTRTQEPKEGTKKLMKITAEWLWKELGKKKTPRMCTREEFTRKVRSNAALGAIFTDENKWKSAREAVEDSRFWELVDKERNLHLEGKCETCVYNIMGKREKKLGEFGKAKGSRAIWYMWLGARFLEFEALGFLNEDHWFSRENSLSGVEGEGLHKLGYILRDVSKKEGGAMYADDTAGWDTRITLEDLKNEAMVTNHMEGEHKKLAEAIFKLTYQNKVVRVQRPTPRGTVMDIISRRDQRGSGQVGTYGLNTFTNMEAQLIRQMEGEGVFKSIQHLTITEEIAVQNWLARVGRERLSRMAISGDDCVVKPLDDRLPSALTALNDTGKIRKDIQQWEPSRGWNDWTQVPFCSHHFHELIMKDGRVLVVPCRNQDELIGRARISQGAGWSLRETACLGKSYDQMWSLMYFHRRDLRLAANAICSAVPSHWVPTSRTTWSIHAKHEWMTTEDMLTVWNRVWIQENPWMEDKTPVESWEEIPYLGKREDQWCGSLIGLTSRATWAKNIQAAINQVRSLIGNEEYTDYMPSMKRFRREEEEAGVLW
Chain of Cytochrome P450 2D6 (P10635 whole entry): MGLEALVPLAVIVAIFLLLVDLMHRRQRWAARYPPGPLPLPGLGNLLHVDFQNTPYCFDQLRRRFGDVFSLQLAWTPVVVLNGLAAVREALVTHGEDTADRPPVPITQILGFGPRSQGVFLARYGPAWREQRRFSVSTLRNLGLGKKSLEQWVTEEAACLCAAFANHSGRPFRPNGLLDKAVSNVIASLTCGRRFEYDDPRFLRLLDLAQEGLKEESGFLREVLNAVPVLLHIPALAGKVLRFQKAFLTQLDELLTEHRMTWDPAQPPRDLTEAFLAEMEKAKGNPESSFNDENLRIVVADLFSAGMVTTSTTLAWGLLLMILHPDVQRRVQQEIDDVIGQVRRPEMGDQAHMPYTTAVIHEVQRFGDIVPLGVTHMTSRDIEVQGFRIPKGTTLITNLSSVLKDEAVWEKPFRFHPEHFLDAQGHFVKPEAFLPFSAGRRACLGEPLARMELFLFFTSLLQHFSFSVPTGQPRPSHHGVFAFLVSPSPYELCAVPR
T1 sequence (P11940 whole entry): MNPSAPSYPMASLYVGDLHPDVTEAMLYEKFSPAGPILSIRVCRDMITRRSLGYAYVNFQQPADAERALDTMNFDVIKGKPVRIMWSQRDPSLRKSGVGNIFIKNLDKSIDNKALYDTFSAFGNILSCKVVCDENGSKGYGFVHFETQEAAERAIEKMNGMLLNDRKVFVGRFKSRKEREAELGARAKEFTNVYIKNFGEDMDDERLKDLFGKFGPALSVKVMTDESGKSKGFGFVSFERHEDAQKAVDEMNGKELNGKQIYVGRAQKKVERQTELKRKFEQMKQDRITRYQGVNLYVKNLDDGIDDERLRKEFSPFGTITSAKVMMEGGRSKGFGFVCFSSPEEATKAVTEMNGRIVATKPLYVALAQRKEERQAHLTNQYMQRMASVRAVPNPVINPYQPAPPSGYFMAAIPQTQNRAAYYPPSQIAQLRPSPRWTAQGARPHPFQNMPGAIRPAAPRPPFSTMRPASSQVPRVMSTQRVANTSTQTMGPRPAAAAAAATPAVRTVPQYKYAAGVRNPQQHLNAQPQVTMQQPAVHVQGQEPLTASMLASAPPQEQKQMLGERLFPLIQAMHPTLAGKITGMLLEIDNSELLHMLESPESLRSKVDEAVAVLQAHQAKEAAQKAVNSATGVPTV
Chain of Cytochrome P450 2C9 (P11712 whole entry): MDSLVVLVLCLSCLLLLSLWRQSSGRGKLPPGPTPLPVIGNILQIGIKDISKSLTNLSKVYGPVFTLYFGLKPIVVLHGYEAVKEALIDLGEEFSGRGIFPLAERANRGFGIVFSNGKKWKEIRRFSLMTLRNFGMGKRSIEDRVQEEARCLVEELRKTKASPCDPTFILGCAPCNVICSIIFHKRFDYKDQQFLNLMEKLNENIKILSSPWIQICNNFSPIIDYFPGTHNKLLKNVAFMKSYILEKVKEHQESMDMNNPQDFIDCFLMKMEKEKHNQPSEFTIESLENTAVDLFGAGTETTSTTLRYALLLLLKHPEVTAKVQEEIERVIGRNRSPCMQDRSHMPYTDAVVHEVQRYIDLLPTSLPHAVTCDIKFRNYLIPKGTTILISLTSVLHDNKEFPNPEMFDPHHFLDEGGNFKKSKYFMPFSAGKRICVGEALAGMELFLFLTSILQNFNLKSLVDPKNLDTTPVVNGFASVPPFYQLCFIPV

For `COc1cc(CN2CCN(c3cc(C)ccc3C)CC2)ccc1O`, the AC50 [1] was 1.66 µM (active), the IC50 [2] was 1.4 µM (active) and the IC50 [3] was 2.74 µM (active).
In the case of `CSc1nc2ccccc2cc1/C=C(\C#N)c1cccc(Cl)c1`, the AC50 [4] is reported as “inconclusive”, the AC50 [5] is reported as 1.17 µM (active) and the AC50 [6] is reported as 39.8 µM (inconclusive).
In the case of `Cc1sc2nc3ccc(NCc4ccco4)nn3c(=O)c2c1C`, the IC50 [7] is reported as > 66 µM (inactive), the CC50 [8] is reported as > 40 µM (active) and the IC50 [9] is reported as > 100 µM (active). The IC50 [10] was > 66 µM (inactive).
For `O[C@@H](c1ccccc1)C1CCN(CCc2ccccc2)CC1`, the AC50 [4] was “inconclusive”, the AC50 [11] was 31.6 µM (inconclusive) and the AC50 [12] was 25.1 µM (inconclusive).
In the case of `NCCS` [CYSTEAMINE], the AC50 [4] is reported as “inconclusive”.
In the case of `Cc1ccc(-c2nnc(CSc3nnc(COc4cccc5ccccc45)n3-c3ccccc3)o2)cc1`, the IC50 [13] is reported as 6.83 µM (active).
In the case of `CCOC(=O)N1CCN(C2=C(NS(=O)(=O)c3ccc(Br)cc3)C(=O)c3ccccc3C2=O)CC1`, the CC50 [8] is reported as > 40 µM (active).
With `COc1cc2c(cc1OC)C(=O)C(Br)CC2` (stereo not given) the CC50 [14] was > 40 µM (active) and the CC50 [8] was 26.4 µM (active).
With `O=C(COC(=O)C1CC(=O)N(Cc2ccco2)C1)c1ccc(OC(=O)c2ccco2)cc1` (stereo not given) the AC50 [15] was > 380 µM (inactive), the IC50 [16] was 13.3 µM (active) and the EC50 [17] was 18 µM (active).
In the case of `CC(=O)O[C@]1(C(C)=O)CC[C@@H]2[C@@H]3C=C(C)C4=CC(=O)CC[C@@]4(C)[C@H]3CC[C@]21C`, the AC50 [4] is reported as “inconclusive” and the AC50 [6] is reported as 12.6 µM (inconclusive).
With `CC(=O)c1cccc(S(=O)(=O)N2CCN(c3nc4cc(C)cc(C)c4cc3C#N)CC2)c1` the CC50 [18] was 18.4 µM (active), the IC50 [2] was 5.84 µM (active) and the IC50 [3] was 3.28 µM (active).
With `CCN1CCN(CC(=O)N2c3ccccc3CC2C)CC1.O=C(O)C(=O)O` (stereo not given) the AC50 [4] was “inconclusive” and the AC50 [12] was 17.8 µM (inconclusive).
With `COc1cc(/C=C2\SC(=S)N(NS(=O)(=O)c3ccccc3)C2=O)cc(OC)c1OC` the CC50 [8] was > 40 µM (active) and the IC50 [9] was 65 µM (active).
